#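 The compound was tested at five concentrations on cells cultured in 96-well plates, with a 48-hour exposure period. GI50 marks 50% less growth. TGI is the concentration that stops growth completely.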
# Key:
# Experiment in all cases: NCI-60 cell line screen, 48 h
# [1] = test system: IGROV1 ovarian
# [2] = test system: UACC-257 melanoma
# [3] = test system: HL-60(TB) leukemia
# [4] = test system: PC-3 prostate
# [5] = test system: UACC-62 melanoma
# [6] = test system: SNB-19 CNS
# [7] = test system: HT29 colon
# [8] = test system: HOP-92 NSCLC
# [9] = test system: MCF7 breast
# [10] = test system: HCT-15 colon
# [11] = test system: OVCAR-3 ovarian
# [12] = test system: MDA-MB-468 breast
# [13] = test system: SK-MEL-5 melanoma
# [14] = test system: EKVX NSCLC
# [15] = test system: BT-549 breast
# [16] = test system: T-47D breast
# [17] = test system: NCI-H23 lung
# [18] = test system: SN12C renal
# [19] = test system: 786-0 renal
# [20] = test system: LOX IMVI melanoma
# [21] = test system: SF-268 CNS
# [22] = test system: M14 melanoma
# [23] = test system: A549 NSCLC
# [24] = test system: MOLT-4 leukemia
# [25] = test system: SK-OV-3 ovarian
# [26] = test system: UO-31 renal
# [27] = test system: HCC-2998 colon
# [28] = test system: NCI/ADR-RES ovarian
# [29] = test system: MDA-MB-231 breast
# [30] = test system: SF-539 CNS
# [31] = test system: HS 578T breast
# [32] = test system: SK-MEL-28 melanoma
# [33] = test system: A498 renal
# [34] = test system: OVCAR-4 ovarian
# [35] = test system: U251 CNS
# [36] = test system: RPMI-8226 leukemia
# [37] = test system: K-562 leukemia
# [38] = test system: KM12 colon
# [39] = test system: NCI-H522 lung
# [40] = test system: TK-10 renal
# [41] = test system: CCRF-CEM leukemia
# [42] = test system: COLO 205 colon
# [43] = test system: OVCAR-8 ovarian
# [44] = test system: OVCAR-5 ovarian
# [45] = test system: MDA-MB-435
# [46] = test system: SR leukemia
# [47] = test system: MALME-3M melanoma
# [48] = test system: SW-620 colon
# [49] = test system: HOP-62 NSCLC
# [50] = test system: NCI-H460 lung
# [51] = test system: NCI-H226 lung
# [52] = test system: CAKI-1 renal
# [53] = test system: RXF 393 renal
# [54] = test system: SF-295 CNS
# [55] = test system: ACHN renal
# [56] = test system: DU-145 prostate
smiles,measurement,setting,value
COc1ccc2nc(Cl)c(-c3cc(-c4ccccc4)nc(N)n3)cc2c1,GI50,[1],8.04 µM
same,TGI,[1],23.7 µM
same,GI50,[2],19 µM
same,TGI,[2],66.5 µM
same,GI50,[3],1.55 µM
same,TGI,[3],> 100 µM
same,GI50,[4],5.79 µM
same,TGI,[4],> 100 µM
same,GI50,[5],11 µM
same,TGI,[5],24 µM
same,GI50,[6],7.62 µM
same,TGI,[6],23.5 µM
same,GI50,[7],5.11 µM
same,TGI,[7],18.7 µM
same,GI50,[8],11.3 µM
same,TGI,[8],62 µM
same,GI50,[9],2.82 µM
same,TGI,[9],12.8 µM
same,GI50,[10],2.67 µM
same,TGI,[10],8.1 µM
same,GI50,[11],3.71 µM
same,TGI,[11],14.5 µM
same,GI50,[12],4 µM
same,TGI,[12],16.5 µM
same,GI50,[13],12.2 µM
same,TGI,[13],24.6 µM
same,GI50,[14],16.9 µM
same,TGI,[14],72.2 µM
same,GI50,[15],1.54 µM
same,TGI,[15],3.32 µM
same,GI50,[16],7.94 µM
same,TGI,[16],> 100 µM
same,GI50,[17],6.53 µM
same,TGI,[17],23.4 µM
same,GI50,[18],4.71 µM
same,TGI,[18],19.2 µM
same,GI50,[19],1.45 µM
same,TGI,[19],4.36 µM
same,GI50,[20],1.92 µM
same,TGI,[20],4.23 µM
same,GI50,[21],28.1 µM
same,TGI,[21],> 100 µM
same,GI50,[22],4.33 µM
same,TGI,[22],25.9 µM
same,GI50,[23],21.5 µM
same,TGI,[23],> 100 µM
same,GI50,[24],1.74 µM
same,TGI,[24],> 100 µM
same,GI50,[25],39.7 µM
same,TGI,[25],> 100 µM
same,GI50,[26],4.3 µM
same,TGI,[26],17.6 µM
same,GI50,[27],10.6 µM
same,TGI,[27],22.5 µM
same,GI50,[28],4.77 µM
same,TGI,[28],36 µM
same,GI50,[29],6.97 µM
same,TGI,[29],38.8 µM
same,GI50,[30],1.89 µM
same,TGI,[30],3.92 µM
same,GI50,[31],20.8 µM
same,TGI,[31],> 100 µM
same,GI50,[32],14.6 µM
same,TGI,[32],33.8 µM
same,GI50,[33],25.9 µM
same,TGI,[33],> 100 µM
same,GI50,[34],22.3 µM
same,TGI,[34],> 100 µM
same,GI50,[35],3.26 µM
same,TGI,[35],13.2 µM
same,GI50,[36],3.31 µM
same,TGI,[36],> 100 µM
same,GI50,[37],3.21 µM
same,TGI,[37],> 100 µM
same,GI50,[38],3.38 µM
same,TGI,[38],12.6 µM
same,GI50,[39],11.7 µM
same,TGI,[39],27.4 µM
same,GI50,[40],22.1 µM
same,TGI,[40],90.2 µM
same,GI50,[41],2.58 µM
same,TGI,[41],> 100 µM
same,GI50,[42],10.9 µM
same,TGI,[42],25.8 µM
same,GI50,[43],3.37 µM
same,TGI,[43],18.5 µM
same,GI50,[44],6.61 µM
same,TGI,[44],29.1 µM
same,GI50,[45],12.8 µM
same,TGI,[45],33 µM
same,GI50,[46],0.605 µM
same,TGI,[46],> 100 µM
same,GI50,[47],12.2 µM
same,TGI,[47],27.4 µM
same,GI50,[48],2.8 µM
same,TGI,[48],8.76 µM
same,GI50,[49],7.47 µM
same,TGI,[49],31.1 µM
same,GI50,[50],3.58 µM
same,TGI,[50],13.5 µM
same,GI50,[51],7.23 µM
same,TGI,[51],53.9 µM
same,GI50,[52],20.5 µM
same,TGI,[52],71.4 µM
same,GI50,[53],3.51 µM
same,TGI,[53],13.7 µM
same,GI50,[54],11.4 µM
same,TGI,[54],36.1 µM
same,GI50,[55],10.6 µM
same,TGI,[55],30.8 µM
same,GI50,[56],4.03 µM
same,TGI,[56],> 100 µM

# Reference: PubChem BioAssay (NCI)
